Measurements from ChEMBL document CHEMBL2074387, “Expression of the bile salt export pump is maintained after chronic cholestasis in the rat” (Gastroenterology, 2000).

Experiments:
[1] = target: T1, Hepatic sodium/bile acid cotransporter (Rattus norvegicus, UniProt P26435); assay: TP_TRANSPORTER: Northern blot in vivo SD rat, liver; format: functional, organism-based, Sprague-Dawley
T1 sequence (P26435 whole entry): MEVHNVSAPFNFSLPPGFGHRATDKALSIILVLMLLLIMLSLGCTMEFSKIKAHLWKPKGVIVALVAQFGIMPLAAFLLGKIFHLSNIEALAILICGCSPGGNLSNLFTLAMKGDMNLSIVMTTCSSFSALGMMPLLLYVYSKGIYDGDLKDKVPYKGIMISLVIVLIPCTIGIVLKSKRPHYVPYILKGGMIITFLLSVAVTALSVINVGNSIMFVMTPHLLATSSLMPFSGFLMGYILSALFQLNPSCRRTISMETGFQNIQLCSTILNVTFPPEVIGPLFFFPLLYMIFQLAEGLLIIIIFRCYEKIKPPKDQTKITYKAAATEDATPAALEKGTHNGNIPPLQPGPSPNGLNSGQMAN

[2] = target: T2, Bile salt export pump (Rattus norvegicus, UniProt O70127); assay: TP_TRANSPORTER: Western in vivo SD rat, liver; format: functional, organism-based, Sprague-Dawley
T2 sequence (O70127 whole entry): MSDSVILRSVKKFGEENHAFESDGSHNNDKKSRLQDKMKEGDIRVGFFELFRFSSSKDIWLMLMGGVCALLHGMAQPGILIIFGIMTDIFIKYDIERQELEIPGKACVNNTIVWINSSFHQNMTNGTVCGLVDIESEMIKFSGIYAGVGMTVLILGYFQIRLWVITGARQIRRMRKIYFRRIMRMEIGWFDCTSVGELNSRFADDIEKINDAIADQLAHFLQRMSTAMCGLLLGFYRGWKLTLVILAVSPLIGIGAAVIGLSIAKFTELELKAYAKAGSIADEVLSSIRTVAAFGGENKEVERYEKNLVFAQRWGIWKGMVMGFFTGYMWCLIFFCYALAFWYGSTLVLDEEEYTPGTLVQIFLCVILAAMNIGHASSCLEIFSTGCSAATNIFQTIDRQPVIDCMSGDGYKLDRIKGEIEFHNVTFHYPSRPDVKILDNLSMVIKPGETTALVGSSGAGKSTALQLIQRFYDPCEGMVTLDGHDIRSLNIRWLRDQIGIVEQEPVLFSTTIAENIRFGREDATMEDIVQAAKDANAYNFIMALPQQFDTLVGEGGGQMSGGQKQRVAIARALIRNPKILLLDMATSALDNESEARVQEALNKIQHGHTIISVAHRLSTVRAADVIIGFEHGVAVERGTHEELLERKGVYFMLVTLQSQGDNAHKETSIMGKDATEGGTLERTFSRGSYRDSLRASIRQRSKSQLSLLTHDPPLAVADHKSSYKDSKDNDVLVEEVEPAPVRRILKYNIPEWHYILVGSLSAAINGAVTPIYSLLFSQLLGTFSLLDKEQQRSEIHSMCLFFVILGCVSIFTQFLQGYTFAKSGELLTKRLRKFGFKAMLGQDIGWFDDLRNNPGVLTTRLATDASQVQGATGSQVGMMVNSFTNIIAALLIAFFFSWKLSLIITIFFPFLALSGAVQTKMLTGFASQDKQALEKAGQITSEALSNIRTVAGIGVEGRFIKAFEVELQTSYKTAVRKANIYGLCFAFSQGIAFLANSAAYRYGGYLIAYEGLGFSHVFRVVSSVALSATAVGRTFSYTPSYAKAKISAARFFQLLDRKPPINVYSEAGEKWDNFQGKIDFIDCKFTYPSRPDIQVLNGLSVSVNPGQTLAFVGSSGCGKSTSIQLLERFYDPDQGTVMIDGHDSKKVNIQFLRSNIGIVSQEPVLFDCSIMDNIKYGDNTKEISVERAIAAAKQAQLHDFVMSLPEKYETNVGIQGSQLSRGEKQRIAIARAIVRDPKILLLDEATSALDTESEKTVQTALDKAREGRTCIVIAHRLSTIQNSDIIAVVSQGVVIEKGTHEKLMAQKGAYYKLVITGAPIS

Activity [1]: inducer [Decrease]
Activity [2]: inducer [Decrease]
Compound: C#C[C@]1(O)CC[C@H]2[C@@H]3CCc4cc(O)ccc4[C@H]3CC[C@@]21C [ETHINYL ESTRADIOL]
